{
  "source": "patent US20240099951A1",
  "about": "“HAIR GROWTH STIMULANT” (ADJUVANT HOLDINGS CO., LTD., priority 2020, published 2024)",
  "key": {"[1]": {"tested_on": "hair groups derived from C57BL/6N dorsal body hair skin transplanted in Balb/c nu/nu mice", "assay": "Evaluation of hair-diameter-increasing activity (hair shafts grown after third cycle of Exemplary Test 1)", "format": "in vivo", "experimental": "Dorsal body hair skin was collected from C57BL/6N mice (SLC) of age 7 to 8 weeks in accordance with a procedure similar to that at Exemplary Test 1, above, the drug being applied after the hair groups derived from the dorsal body hair skin that had been fabricated were transplanted in Balb/c nu/nu mice (SLC) of age 4 to 6 weeks. Testing and breeding of animals complied with pertinent laws, regulations, ordinances, and guidelines, and was performed with the approval of the Experimental Ethics Review Board of the Institute of Physical and Chemical Research. The following three solutions were used during testing. • 60% aqueous ethanol solution • 5% minoxidil solution • 1% phytosphingosine solution Measurement of increase in hair diameter was carried out using hair shafts which had grown following completion of the third cycle at Exemplary Test 1. Of the hair shafts that were collected, two zigzag hairs were used. Three locations were selected in regions where diameter was large in the central portions thereof using a square 100 μm on a side. Measurement of selected regions was carried out at five locations. Hairs as they existed following application of the drug were used for measurement of hair shaft diameter."}, "[2]": {"tested_on": "skin samples derived from C57BL/6N mouse dorsal body hair skin grafted onto Balb/c nu/nu mice", "assay": "Evaluation of hair growth activity: drug applied on skin samples transplanted in mice", "format": "in vivo", "experimental": "C57BL/6N mice (male) and Balb/c nu/nu mice (female) were purchased from Japan SLC, Inc. (Japan) and bred, and were thereafter made available for the following testing. Note that the testing and breeding of animals complied with pertinent laws, regulations, ordinances, and guidelines, and was performed with the approval of the Experimental Ethics Review Board of the Institute of Physical and Chemical Research. The following reagents were respectively prepared. • Comparative Example 1: 60% aqueous ethanol solution • Comparative Example 2: 5% minoxidil solution • Comparative Example 3: 3% minoxidil solution • Comparative Example 4: 1% minoxidil solution • Working Example 1: 3% phytosphingosine solution • Working Example 2: 1% phytosphingosine solution To collect dorsal body hair skin in the form of anagen stage VI skin 12 to 14 days following depilation, C57BL/6N mice of age 7 to 8 weeks were depilated at locations where dorsal body hair skin was intended to be collected, and were bred for 12 to 14 days. The depilated C57BL/6N mice were thereafter euthanized by cervical dislocation, following which a suitable amount of dorsal body hair skin was collected from the locations at which dorsal body hair skin was intended to be collected. The collected skin was immersed in DMEM culture medium (hereinafter “DMEM 10”) which contained 10 mM HEPES, 10% fetal bovine serum, and 1% penicillin/streptomycin solution. The collected dorsal body hair skin was grasped with bent-nose curved tweezers and was treated by immersion for 10 seconds in a sterilizing solution. Sterilization treatment was performed by carrying out treatment with 7% povidone iodine solution two times, treatment with PBS (−) three times, and treatment with DMEM 10 two times, in this order, with fresh solutions respectively being used each time. Following sterilization treatment, these were immersed in clean DMEM 10. Following sterilization treatment, the dorsal body hair skin was cut into pieces and formed into blocks. The transparent connective tissue which adhered to the cutaneous muscle layer of the skin was excised therefrom using curved scissors, and hair groups were cut into rectangular strips in parallel fashion with respect to the direction of the wave of the hair. At this time, these were cut into blocks such that there were 6 rows of hair follicles along the long axis, adjustment having been carried out so that there were 5 rows of hair follicles along the short axis. The skin samples derived from dorsal body hair skin that were prepared in accordance with the foregoing were grafted onto Balb/c nu/nu mice of age 4 to 6 weeks. More specifically, mice were anesthetized in the usual way using isoflurane gas. The dorsal area of the mice was then disinfected using 7% povidone iodine solution, following which the mice were made to assume a naturally recumbent posture. In addition, a Mani ophthalmic knife (Mani, Inc.; Japan) was used to pierce the skin at the dorsal area of the mice, the grafts which were formed extending from the epidermal layer of the skin to the subdermal layer. The skin samples derived from dorsal body hair skin were inserted into the grafts formed thereat in such fashion as to cause the hair groups to be directed toward the body surface side of the grafts. Skin sample transplanted depth was adjusted so as to cause the top portion of the hair group to be in a state such that it was exposed at the top portion of the graft. To protect the grafts, Nurseban (registered trademark) (Sunplanet Co., Ltd.; Japan) and surgical tape (3M Japan Limited; Japan) were then used as protective tape to cover the grafts at which the skin samples derived from dorsal body hair skin had been transplanted. The protective tape was removed 5 to 7 days following transplantation, and survival of the transplanted skin samples derived from dorsal body hair skin was determined by visual inspection or digital microscopy (Keyence Corporation; Japan), after which follow-up observation was carried out. […]"}, "[3]": {"conditions": "1% minoxidil solution (Comparative Example 4), second hair cycle"}, "[4]": {"conditions": "1% minoxidil solution (Comparative Example 4), third hair cycle"}, "[5]": {"conditions": "1% minoxidil solution, second hair cycle vs first hair cycle"}, "[6]": {"conditions": "1% minoxidil solution, third hair cycle vs first hair cycle"}, "[7]": {"conditions": "3% minoxidil solution (Comparative Example 3), second hair cycle"}, "[8]": {"conditions": "3% minoxidil solution (Comparative Example 3), third hair cycle"}, "[9]": {"conditions": "3% minoxidil solution, second hair cycle vs first hair cycle"}, "[10]": {"conditions": "3% minoxidil solution, third hair cycle vs first hair cycle"}, "[11]": {"conditions": "5% minoxidil solution (Comparative Example 2), second hair cycle"}, "[12]": {"conditions": "5% minoxidil solution (Comparative Example 2), third hair cycle"}, "[13]": {"conditions": "5% minoxidil solution, second hair cycle vs first hair cycle"}, "[14]": {"conditions": "5% minoxidil solution, third hair cycle vs first hair cycle"}},
  "data": [
    {"smiles": "Nc1cc(N2CCCCC2)nc(N)[n+]1[O-]", "note": "[minoxidil]", "values": [
      {"measurement": "Hair shaft diameter", "setting": "[1]; 5% minoxidil solution applied, hair shafts after third cycle", "value": 18.28, "unit": "μm"},
      {"measurement": "hair shaft diameter as percent of control", "setting": "[1]; 5% minoxidil solution vs 60% aqueous ethanol solution", "value": 115, "unit": "%"},
      {"measurement": "Hair shaft elongation rate", "setting": "[2]; [3]", "value": "0.54 ± 0.08", "unit": "mm/day"},
      {"measurement": "Maximum hair shaft length", "setting": "[2]; [3]", "value": "5.2 ± 0.3", "unit": "mm"},
      {"measurement": "Hair shaft elongation rate", "setting": "[2]; [4]", "value": "0.44 ± 0.02", "unit": "mm/day"},
      {"measurement": "Maximum hair shaft length", "setting": "[2]; [4]", "value": "4.9 ± 0.4", "unit": "mm"},
      {"measurement": "Hair shaft elongation rate, percent change relative to reference data", "setting": "[2]; [5]", "value": 123.85, "unit": "%"},
      {"measurement": "Maximum hair shaft length, percent change relative to reference data", "setting": "[2]; [5]", "value": 118.07, "unit": "%"},
      {"measurement": "Hair shaft elongation rate, percent change relative to reference data", "setting": "[2]; [6]", "value": 100.24, "unit": "%"},
      {"measurement": "Maximum hair shaft length, percent change relative to reference data", "setting": "[2]; [6]", "value": 111.10, "unit": "%"},
      {"measurement": "Hair shaft elongation rate", "setting": "[2]; [7]", "value": "0.48 ± 0.07", "unit": "mm/day"},
      {"measurement": "Maximum hair shaft length", "setting": "[2]; [7]", "value": "5.2 ± 0.2", "unit": "mm"},
      {"measurement": "Hair shaft elongation rate", "setting": "[2]; [8]", "value": "0.53 ± 0.03", "unit": "mm/day"},
      {"measurement": "Maximum hair shaft length", "setting": "[2]; [8]", "value": "5.3 ± 0.3", "unit": "mm"},
      {"measurement": "Hair shaft elongation rate, percent change relative to reference data", "setting": "[2]; [9]", "value": 126.50, "unit": "%"},
      {"measurement": "Maximum hair shaft length, percent change relative to reference data", "setting": "[2]; [9]", "value": 116.80, "unit": "%"},
      {"measurement": "Hair shaft elongation rate, percent change relative to reference data", "setting": "[2]; [10]", "value": 139.36, "unit": "%"},
      {"measurement": "Maximum hair shaft length, percent change relative to reference data", "setting": "[2]; [10]", "value": 120.09, "unit": "%"},
      {"measurement": "Hair shaft elongation rate", "setting": "[2]; [11]", "value": "0.51 ± 0.03", "unit": "mm/day"},
      {"measurement": "Maximum hair shaft length", "setting": "[2]; [11]", "value": "6.0 ± 0.1", "unit": "mm"},
      {"measurement": "Hair shaft elongation rate", "setting": "[2]; [12]", "value": "0.55 ± 0.07", "unit": "mm/day"},
      {"measurement": "Maximum hair shaft length", "setting": "[2]; [12]", "value": "5.8 ± 0.1", "unit": "mm"},
      {"measurement": "Hair shaft elongation rate, percent change relative to reference data", "setting": "[2]; [13]", "value": 116.25, "unit": "%"},
      {"measurement": "Maximum hair shaft length, percent change relative to reference data", "setting": "[2]; [13]", "value": 115.74, "unit": "%"},
      {"measurement": "Hair shaft elongation rate, percent change relative to reference data", "setting": "[2]; [14]", "value": 126.11, "unit": "%"},
      {"measurement": "Maximum hair shaft length, percent change relative to reference data", "setting": "[2]; [14]", "value": 112.62, "unit": "%"}
    ]}
  ]
}
